# Measured values published in patent US20230277669A1, “USES OF UROLITHINS” (Amazentis SA, priority 2022, published 2023).
# Assays:
# Pink1^-/- CD8^+ T cells = experiment: In vitro stimulation of Pink1-/- T cells in presence of UA; assay type: cell-based, Pink1^-/- mice
# Method: (§1) (FIG. 4A) Scheme of CD3+ T-cell activation and analysis for various timepoints in order to investigate mitophagy induction in vitro. (FIG. 4B) Analysis of mitochondrial membrane potential within CD8+ T cells, with TMRM^lo representing cells with low mitochondrial membrane potential. Analysis was performed six hours after stimulation with aCD/aCD28 stimulation beads at the presence of the indicated treatments. N=4 per group, *p < 0.05 by Mann Whitney U test. One of two independent experiments are shown. (FIG. 4C) Representative flow histogram and quantification of lysosome formation in CD8+ cells six hours after in vitro stimulation. MFI shown relative to DMSO controls, n=4. Data are normalised mean ± SD, statistical analysis by two-sided t-test. One out of two independent experiments are shown. (FIG. 4D) Mitotracker Red staining of in vitro stimulated CD8+ cells after 24 hours of Urolithin A (UA25 n=6; UA50 n=6) or vehicle control treatment (DMSO: n=4). A representative flow histogram depicting identification of Mitotracker^hi cells is shown. Data are mean ± SD, statistical analysis was performed by two-sided t-test (*p < 0.05; ***p <0.001; ****p < 0.0001). Experiment was repeated twice. (FIG. 4E) Subset-specific identification of Mitotracker red accumulation after 24 hours of in vitro stimulation either with vehicle control (DMSO) or 50 µM Urolithin A (n=5). Subsets were identified was depicted in the FIGS. 7-9. Data are mean ± SD, statistical analysis by two-sided t-test (* p<0.05, *** p<0.001 and **** p<0.0001). (FIG. 4F) qPCR analysis of various autophagy/mitophagy associated genes of in vitro activated CD3+ cells, 24 h after activation (n=3). Data are ± SEM, statistical analysis was performed by two-sided t-test (*p < 0.05,**p < 0.01). Overall p value is given for the comparison over the entire panel of genes after two-way ANOVA test. (FIG. 4G) Western blot of Parkin protein expression in UA or DMSO (n=3) treated cells after 24 h. Cells were stimulated at the presence of plate-bound aCD3/aCD28 antibodies. […] (FIG. 4H) CD8+ cells from Pink1^-/- mice display deficient mitophagy upon UA treatment in vitro: Lysosome formation in CD8+ of Pink1^-/- mice as assessed by Lysotracker staining 6h post stimulation at the presence of UA or DMSO (n=4). Data are mean ± SD, one out of two independent experiments are shown. (FIG. 4I) CD8+ cells from Pink1^-/- mice display deficient mitophagy upon UA treatment in vitro: Mitotracker red staining of Pink1^-/- CD8+ stimulated in vitro for 48 h, either in the presence of UA or DMSO (n=4). Percentage of Mitotracker^hi CD8+ cells are shown. Data are mean ± SD and acquired via flow cytometry. One out of two independent experiments are shown. Statistical analysis was performed by two-sided t-test (n.s., not significant). (FIG. 4J) CD8+ cells from Pink^-/- mice fail to reprogram to TSCM after UA exposure in vitro: TSCM formation in Pink1^-/- CD8+ cells 48 h after stimulation in the presence of UA (25 µM and 50 µM) and DMSO (n=4, respectively). Data are mean ± SD, statistical analysis was performed by two-sided t-test (***p <0.001). Data depicts results of three independent experiments. (FIG. 4K) Expression of TCF1 in naïve-like CD62L^+CD44^-CD8^+ Pink1^-/- cells. Data are ± SD, depicted as MFI (***p <0.001 by two-sided t-test). (FIG. 4L) Growth curve of Pink1^-/- mice s.c. injected with APTK-organoids, fed UA-rich or control diet as depicted in FIG. 1J. n=4 per group. Data are mean ± SD. (FIG. 4M) Flow cytometry analysis of TIL in Pink ^-^/- mice s.c. transplanted with APTK tumors, fed either UA or control diet. Quantification of TCF1^hi cells among CD8. (FIG. 4N) Quantification of PD1^hi cells among CD8. (FIG. 4O) Quantification of and Tim3^hi cells among CD8. (FIG. 4P) Ex vivo cytokine release assay. TIL of Pink1^-/- from FIG. 4L were stimulated ex vivo with PMA and lonomycin, in the presence of Brefeldin A for three hours. Data depicts percentage of TNFα^hi cells within the CD8+ compartment. All data are mean ± SD (n=4). […]
# APTK tumors = experiment: Oral UA in Pink1-/- mice with s.c. APTK tumors; assay type: in vivo
# Method: as §1, with “One out of two independent experiments are shown. Statistical analysis was performed by two-sided t-test (n.s., not significant). (FIG. 4J) CD8+ cells from Pink^-/- mice fail to reprogram to TSCM after UA exposure in vitro: TSCM formation in Pink1^-/- CD8+ cells 48 h after stimulation in the presence of UA (25 µM and 50 µM) and DMSO (n=4, respectively). Data are mean ± SD, statistical analysis was performed by two-sided t-test (***p <0.001). Data depicts results of three independent experiments. (FIG. 4K) Expression of TCF1 in naïve-like CD62L^+CD44^-CD8^+ Pink1^-/- cells. Data are ± SD, depicted as MFI (***p <0.001 by two-sided t-test). (FIG. 4L) Growth curve of Pink1^-/- mice s.c. injected with APTK-organoids, fed UA-rich or control diet as depicted in FIG. 1J. n=4 per group. Data are mean ± SD. (FIG. 4M) Flow cytometry analysis of TIL in Pink ^-^/- mice s.c. transplanted with APTK tumors, fed either UA or control diet.” left out, “CD8.” for “CD8. (FIG. 4P) Ex vivo cytokine release assay. TIL of Pink1^-/- from FIG. 4L were stimulated ex vivo with PMA and lonomycin, in the presence of Brefeldin A for three hours. Data depicts percentage of TNFα^hi cells within the CD8+ compartment. All data are mean ± SD (n=4).”
smiles,measurement,setting,value
O=c1oc2cc(O)ccc2c2ccc(O)cc12 [Urolithin A],TCF-1 in CD44-CD62L+CD8+ T cells,Pink1^-/- CD8^+ T cells,expressed less TCF-1
same,cytoplasmic expression of Pgam5,"Pink1^-/- CD8^+ T cells; 6 h, upon UA exposure",lack of cytoplasmic expression of Pgam5
same,UA-induced lysosome formation,Pink1^-/- CD8^+ T cells; 6h post stimulation,prevented
same,PGC-1α expression,Pink1^-/- CD8^+ T cells; 48 h,failed to enhance
same,UA-induced decrease in mitochondrial content,Pink1^-/- CD8^+ T cells; 48 h,prevented
same,TSCM phenotype,"Pink1^-/- CD8^+ T cells; 48 h, UA 25 µM and 50 µM",failed to exhibit a TSCM phenotype
same,ex vivo cytokine release of CD8+ TIL,APTK tumors; PMA and Ionomycin restimulation,did not exhibit differences
same,TCF-1 expression in CD8+ TIL,APTK tumors; UA or control diet,did not exhibit differences
same,exhaustion markers in CD8+ TIL,APTK tumors; UA or control diet,did not exhibit differences
same,tumor suppressive effect of UA (growth curve),APTK tumors; UA-rich or control diet,abrogated the tumor suppressive effect of UA
